# Assay results as given in patent publication US12692236B2, “Small molecule modulators of sigma-1 and sigma-2 receptors and uses thereof” (Northwestern University, priority 2018, dated 2026).
# Legend:
# sigma-1 receptor = sigma-1 receptor (Homo sapiens, UniProt Q99720); experiment: sigma-1 receptor binding affinity (Ki); details: read-out: Ki (nM) Sigma-1
# sigma-2 receptor = sigma-2 receptor (Homo sapiens, UniProt Q5BJF2); experiment: sigma-2 receptor binding affinity (Ki); details: for Ki: read-out: Ki (nM) Sigma-2
# Chain of sigma-2 receptor (Q5BJF2 whole entry, species assumed): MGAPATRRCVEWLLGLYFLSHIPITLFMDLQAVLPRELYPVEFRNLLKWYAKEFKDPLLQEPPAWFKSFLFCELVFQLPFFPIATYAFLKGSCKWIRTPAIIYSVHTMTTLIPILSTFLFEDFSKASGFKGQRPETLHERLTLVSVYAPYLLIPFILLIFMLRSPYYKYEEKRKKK
# Chain of sigma-1 receptor (Q99720 whole entry, species assumed): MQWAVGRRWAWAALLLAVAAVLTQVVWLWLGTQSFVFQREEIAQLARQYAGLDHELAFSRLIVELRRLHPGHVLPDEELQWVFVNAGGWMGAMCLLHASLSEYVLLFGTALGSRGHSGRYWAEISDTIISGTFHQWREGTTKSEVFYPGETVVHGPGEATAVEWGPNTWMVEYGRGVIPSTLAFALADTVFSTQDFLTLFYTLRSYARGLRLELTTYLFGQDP
Ki (sigma-1 receptor) [nM],Ki (sigma-2 receptor) [nM],activity against sigma-2 (in words) (sigma-2 receptor),selectivity for sigma-2 over sigma-1 (sigma-2 receptor),SMILES
> 10000,> 10000,–,–,"CCCn1nc(C(=O)N2CCCCC2)c2c1CCC(N1CCC(N(C)C)CC1)C2 (centres unmarked) [compound 196331, (5-(4-(dimethylamino)piperidin-1-yl)-1-propyl-4,5,6,7-tetrahydro-1H-indazol-3-yl)(piperidin-1-yl)methanone]"
872,612,–,–,"CCCn1nc(C(=O)N2CCCCC2)c2c1CCC(NCCc1cccc(O)c1)C2 (centres unmarked) [compound 200646, (5-((3-Hydroxyphenethyl)amino)-1-propyl-4,5,6,7-tetrahydro-1H-indazol-3-yl)(piperidin-1-yl)methanone]"
192,34,great overall potency,about 5 fold,"CCCn1nc(C(=O)N2CCCCC2)c2c1CCC(N1CCN(C)CC1)C2 (centres unmarked) [compound 196337, (5-(4-methylpiperazin-1-yl)-1-propyl-4,5,6,7-tetrahydro-1H-indazol-3-yl)(piperidin-1-yl)methanone]"
